Converted amounts (≈) assume the structure as drawn. Like-named read-outs stand apart in the source and are kept apart here. Blank lines part the entries; values can stand above or below the compound they belong to.
What was measured:
[1] = test system: KB3 (epitheloid lung cancer) cell lines; experiment: Cell growth inhibition (cytotoxicity), MTS assay, KB3 cell line; format: cell-based; details: MTS assay, triplicate, read-out: KB3 IC50
Protocol: Cell growth inhibition was determined by the MTS assay; the number of viable cells were proportional to the extent of formazan production in the presence or absence of drugs. […]

[2] = test system: A549 (human lung adenocarcinoma epithelial); experiment: Growth inhibition, MTT colorimetric assay, A549; format: cell-based; details: carcinoma, 3 days with drug, means of six values, unit inferred, read-out: IC50 A549
Protocol: (§1) A549 (human lung adenocarcinoma epithelial), BxPC3 (pancreatic cancer), LoVo (colon cancer), MCF-7 (epithelial breast cancer), PC3 (human prostate cancer), Hs683 (human glioma), T98G (glioblastoma), U373 (human glioblastoma-astrocytoma), U138 MG (human glioma), epithelial-like), SKMEL28 (human melanoma), B16-F10 (mouse melanoma) and RhTP (rhabdomyosarcoma) cell lines were cultured in presence of the drugs for 3 days. The cytotoxic activity is expressed as (IC50). Inhibition of cell proliferation measured by the MTT colorimetric assay. The values reported in Table 4 are means of six distinct values.

[3] = test system: BxPC3 (pancreatic cancer); experiment: Growth inhibition, MTT colorimetric assay, BxPC3; format: cell-based, human; details: carcinoma, 3 days with drug, means of six values, unit inferred, read-out: IC50 BxPC3
Protocol: Cells are cultured at 37° C. in Falcon culture dishes, incubated at 5% CO2 in a suitable culture medium available from Invitrogen Corp. Anti-proliferative activity is determined by an MTT assay (bromide of (3-[4,5-dimethylthiazolium-yl]diphenyltetrazolium)). According to one standard protocol, absorbance is measured at 570 nm (see Dumont et al. (2007) Neoplasia 9: 766-776.
as §1

[4] = test system: LoVo (colon cancer); experiment: Growth inhibition, MTT colorimetric assay, LoVo; format: cell-based; details: carcinoma, 3 days with drug, means of six values, unit inferred, read-out: IC50 LoVo
Protocol: as §1

[5] = test system: MCF-7 (epithelial breast cancer); experiment: Growth inhibition, MTT colorimetric assay, MCF7; format: cell-based; details: carcinoma, 3 days with drug, means of six values, unit inferred, read-out: IC50 MCF7
Protocol: as §1

[6] = test system: PC3 (human prostate cancer); experiment: Growth inhibition, MTT colorimetric assay, PC3; format: cell-based; details: carcinoma, 3 days with drug, means of six values, unit inferred, read-out: IC50 PC3
Protocol: as §1, with “Compounds that met the criteria for activity on KB3 cells were further tested for drug growth inhibitory activity in 5 carcinoma, 6 glioma and 3 melanoma cell lines, shown in Table 4. A549” for “A549”, “values. The standard errors are <5% as compared to the mean values.” for “values.”

[7] = test system: Hs683 (human glioma); experiment: Growth inhibition, MTT colorimetric assay, HS683; format: cell-based; details: glioma, 3 days with drug, means of six values, unit inferred, read-out: IC50 HS683
Protocol: as §1

[8] = test system: T98G (glioblastoma); experiment: cells; format: cell-based; details: glioma, 3 days with drug, means of six values, unit inferred, read-out: IC50 T98G
Protocol: as §1

[9] = test system: U373 (human glioblastoma-astrocytoma); experiment: Growth inhibition, MTT colorimetric assay, U373; format: cell-based; details: glioma, 3 days with drug, means of six values, unit inferred, read-out: IC50 U373
Protocol: as §1, with “Compounds that met the criteria for activity on KB3 cells were further tested for drug growth inhibitory activity in 5 carcinoma, 6 glioma and 3 melanoma cell lines, shown in Table 4. A549” for “A549”, “values. The standard errors are <5% as compared to the mean values.” for “values.”

[10] = test system: U138 MG (human glioma); experiment: Growth inhibition, MTT colorimetric assay, U138; format: cell-based; details: glioma, 3 days with drug, means of six values, unit inferred, read-out: IC50 U138
Protocol: as §1, with “Compounds that met the criteria for activity on KB3 cells were further tested for drug growth inhibitory activity in 5 carcinoma, 6 glioma and 3 melanoma cell lines, shown in Table 4. A549” for “A549”, “values. The standard errors are <5% as compared to the mean values.” for “values.”

[11] = test system: GL19; experiment: Growth inhibition, MTT colorimetric assay, GL19; format: cell-based; details: 3 days with drug, means of six values, unit inferred, read-out: IC50 GL19
Protocol: as §1, with “Compounds that met the criteria for activity on KB3 cells were further tested for drug growth inhibitory activity in 5 carcinoma, 6 glioma and 3 melanoma cell lines, shown in Table 4. A549” for “A549”, “values. The standard errors are <5% as compared to the mean values.” for “values.”

[12] = test system: RhTP (rhabdomyosarcoma); experiment: Growth inhibition, MTT colorimetric assay, RhTp; format: cell-based; details: 3 days with drug, means of six values, unit inferred, read-out: IC50 RhTp
Protocol: as §1, with “Compounds that met the criteria for activity on KB3 cells were further tested for drug growth inhibitory activity in 5 carcinoma, 6 glioma and 3 melanoma cell lines, shown in Table 4. A549” for “A549”, “values. The standard errors are <5% as compared to the mean values.” for “values.”

[13] = test system: KaKa; experiment: Growth inhibition, MTT colorimetric assay, KaKa; format: cell-based; details: 3 days with drug, means of six values, unit inferred, read-out: IC50 KaKa
Protocol: as §1, with “Compounds that met the criteria for activity on KB3 cells were further tested for drug growth inhibitory activity in 5 carcinoma, 6 glioma and 3 melanoma cell lines, shown in Table 4. A549” for “A549”, “values. The standard errors are <5% as compared to the mean values.” for “values.”

[14] = test system: Host; experiment: Growth inhibition, MTT colorimetric assay, Host; format: cell-based; details: 3 days with drug, means of six values, unit inferred, read-out: IC50 Host
Protocol: as §1, with “Compounds that met the criteria for activity on KB3 cells were further tested for drug growth inhibitory activity in 5 carcinoma, 6 glioma and 3 melanoma cell lines, shown in Table 4. A549” for “A549”, “values. The standard errors are <5% as compared to the mean values.” for “values.”

[15] = test system: SKMEL28 (human melanoma); experiment: Growth inhibition, MTT colorimetric assay, SKMEL-28; format: cell-based; details: melanoma, 3 days with drug, means of six values, unit inferred, read-out: IC50 SKMEL-28
Protocol: as §1, with “Compounds that met the criteria for activity on KB3 cells were further tested for drug growth inhibitory activity in 5 carcinoma, 6 glioma and 3 melanoma cell lines, shown in Table 4. A549” for “A549”, “values. The standard errors are <5% as compared to the mean values.” for “values.”

[16] = test system: B16-F10 (mouse melanoma); experiment: Growth inhibition, MTT colorimetric assay, B16F10; format: cell-based; details: melanoma, 3 days with drug, means of six values, unit inferred, read-out: IC50 B16F10
Protocol: as §1, with “Compounds that met the criteria for activity on KB3 cells were further tested for drug growth inhibitory activity in 5 carcinoma, 6 glioma and 3 melanoma cell lines, shown in Table 4. A549” for “A549”, “values. The standard errors are <5% as compared to the mean values.” for “values.”

[17] = test system: bloodstream forms of T. brucei and T. congolense; experiment: Trypanocidal activity in vitro, Alamar Blue assay; format: cell-based, Trypanosoma brucei and T. congolense; details: 48 h total incubation; for GI50: 50% growth inhibition, read-out: GI50; for MIC: lowest concentration at which all cells were killed, read-out: MIC
Excerpt: Trypanosoma brucei and T. congolense are the causative agents of sleeping sickness in humans and nagana in cattle, respectively. The protozoan parasites live extracellularlyin blood and tissue fluids of mammals and are transmitted by the bite of infected tsetse flies (Glossina spp.). Here the trypanocidal activity against bloodstream forms of T. brucei and T. congolense of bis-8-hydroxy quinoline N-substituted benzylamines derivatives was investigated in vitro, according to methods described in. Steverding et al. (2006) Kinetoplastid Biology and Disease, 5(3): 1-5; Hongmance et al., (2007) Antimicrob. Agents Chemother. 51:1105-1106; and Zhao et al., (2005) Bio-org. Med. Chem.; 13: 3921-3926. Cells were seeded into 96-well tissue culture plates in 200 μl medium containing various concentrations of analogues dissolved in H2O. The controls contained the respective solvent alone. […] After 24 h (trypanosomes) or 43 h (HL-60) incubation, 20 μl of the colorimetric viability indicator Alamar Blue® was added to each well. The cells were incubated for a further 24 h (trypanosomes) or 5 h (HL-60) so that the total incubation time was 48 h. Then, the plates were read on a Dynatech MR5000ELISA reader (Denkendorf, Germany),using a test wavelength of 550 nm and a reference wave length of 630 nm. Each test was set up in duplicate and repeated three times. For comparison, the general cytotoxicity of the compounds was assayed with human myeloid leukaemia HL-60 cells. The anti-trypanosomal activities and the general cytotoxicities of the new analogues were evaluated using the Alamar Blue® assay.

melting point: 114 to 116 °C
SMILES: CC(C)(C)OC(=O)N(Cc1cccc(C(F)(F)F)c1)Cc1ccc(O)c2ncccc12 [BPM19,132, Tert-butyl-(8-hydroxyquinolin-5-yl)methyl(3-(trifluoromethyl)benzyl)carbamate]
IC50 ([1]; KB3, Table 3B): 1000 nM

IC50 [2]: 46 nM | IC50 [3]: 274 nM | IC50 [4]: 93 nM | IC50 [5]: 88 nM | IC50 [6]: 179 nM | IC50 [7]: 64 nM | IC50 [8]: 210 nM | IC50 [9]: 78 nM | IC50 [10]: 80 nM | IC50 [12]: 87 nM | IC50 [15]: 6380 nM | IC50 [16]: 98 nM
SMILES: Oc1ccc(CN(Cc2ccccc2C(F)(F)F)Cc2ccc(O)c3ncccc23)c2cccnc12 [BPM19,178, 5,5-(2-(Trifluoromethyl)benzylazanediyl)bis(methylene)diquinolin-8-ol]
IC50 ([1]; Table 3A): 100 nM | IC50 [11]: 472 nM | IC50 [13]: 887 nM | IC50 [14]: 912 nM | GI50 [17]: 330 ± 10 nM | MIC [17]: 1 µM (≈ 0.489 µg/mL)

IC50 ([2]; Homo sapiens, A549, 72 h): 38 nM | IC50 ([3]; Homo sapiens, BXPC-3, 72 h): 167 nM | IC50 ([4]; Homo sapiens, LoVo, 72 h): 94 nM | IC50 ([5]; Homo sapiens, MCF7, 72 h): 30 nM | IC50 ([6]; Homo sapiens, 72 h): 37 nM | IC50 ([7]; Homo sapiens, Hs 683, 72 h): 36 nM | IC50 ([8]; Homo sapiens, T98G, 72 h): 57 nM | IC50 ([9]; Homo sapiens, U373 MG, 72 h): 65 nM | IC50 ([10]; Homo sapiens, U138-MG, 72 h): 47 nM | IC50 ([12]; 72 h): 69 nM | IC50 ([15]; Homo sapiens, SK-MEL-28, 72 h): > 10000 nM | IC50 ([16]; Mus musculus, B16-F10, 72 h): 89 nM
SMILES: Oc1ccc(CN(Cc2cccc(C(F)(F)F)c2)Cc2ccc(O)c3ncccc23)c2cccnc12 [BPM19,189, 5,5′-(3-(trifluoromethyl)benzylazanediyl)bis(methylene)diquinolin-8-ol]
IC50 ([1]; KB3, Table 3A): 2200 nM | IC50 ([11]; GL19, 72 h): 674 nM | IC50 ([13]; 72 h): 6470 nM | IC50 ([14]; 72 h): 679 nM | GI50 [17]: 310 ± 10 nM | MIC [17]: 1 µM (≈ 0.489 µg/mL)

melting point: 149 to 152 °C
SMILES: CC(C)(C)OC(=O)N(Cc1cc(C(F)(F)F)cc(C(F)(F)F)c1)Cc1ccc(O)c2ncccc12 [BPM19,190, Tert-butyl-3,5-bis(trifluoromethyl)benzyl((8-hydroxyquinolin-5-yl)methyl)carbamate]
IC50 ([1]; KB3, Table 3B): 1000 nM

melting point: 175 to 178 °C
SMILES: Oc1ccc(CN(Cc2ccc(O)c3ncccc23)Cc2ccc(O)c3ncccc23)c2cccnc12 [BPM19,218, 5,5′,5″-nitrilotris(methylene)triquinolin-8-ol]
IC50 ([1]; KB3, Table 3B): > 10000 nM | GI50 [17]: 450 ± 100 nM | MIC [17]: 1 µM (≈ 0.489 µg/mL)
